Assay [1] has as its system human K-562 leukemia cells. The experiment in a line: Antiproliferative assay on K-562 cells (CellTiter-Blue viability readout). In kind it is cell-based. Particulars: for IC50: Homo sapiens; for increase of antiproliferative activity compared to aureothin: ratio of IC50 versus aureothin. The method, then:
Cells were grown in the appropiate cell culture medium supplemented with 10 mL L^-1 ultraglutamine 1 (Cambrex 17-605E/U1), 500 µL L^-1 gentamicin sulfate (CAMBREX 17-518Z), and 10% heat inactivated fetal bovine serum (PAA A15-144) at 37°C in high density polyethylene flasks (NUNC 156340).
The test substances are dissolved in DMSO before being diluted in DMEM. […] were harvested at the logarithmic growth phase after soft trypsinization, using 0.25% trypsin in PBS containing 0.02% EDTA (Biochrom KG L2163). For each experiment approximately 10,000 cells were seeded with 0.1 mL culture medium per well of the 96-well microplates (NUNC 167008).
The cells were incubated with dilutions of the test substances for 72 hours at 37°C in a humidified atmosphere and 5% CO2.
For estimating the influence of chemical compounds on cell proliferation of K-562 we determinate the numbers of viable cells present in multiwell plates via CellTiter-Blue® assay. It uses the indicator dye resazurin to measure the metabolic capacity of cells as indicator of cell viability. Viable cells of untreated control retain the ability to reduce resazurin into resorufin, which is highly fluorescent. […] Under our experimental conditions, the signal from the CellTiter-Blue® reagent is proportional to the number of viable cells.
The GI50 and CC50 values were defined as being where the concentration-response curve intersected the 50% line, compared to untreated control. These comparisons of the different values were performed with software Magellan (TECAN).
A repeat determination has been conducted in all cases.
(Resazurin is reduced to fluorescent resorufin, in cell work by metabolically active cells.)

For assay [2], the system named is fungal strains like Candida albicans, Sporobolomyces salmonicolor, Penicillium notatum, Glomerella or several Aspergillus spp. The assay can be described thus: Antimicrobial / antifungal activity testing. It is filed as cell-based. Particulars: qualitative; compared with the other antimicrobial activities or with aureothin.
The mark [3] stands for this setting: K562, DOA derivatives, K-562 cells, 72 h incubation (assay inferred; table has no title), read-out: IC50.

As a reminder, the IC50 is the concentration needed to halve the response being measured.

Where two headings read alike, the source gives them in different places.

On to `COc1oc(CC/C(C)=C/C(C)=C/c2ccc([N+](=O)[O-])cc2)c(C)c(=O)c1C` [Deoxyaureothin, deoxyaureothin, reference compound], for which, in assay [1] (K562, read-out: IC50 antiproliferative activity against K-562 cells), the IC50 came to 5000 nM. For the same compound, the “increase of antiproliferative activity compared to aureothin” value in assay [1] (K-562 cells) was determined as 5 fold.
Take `COc1oc(CC/C(C)=C/C(C)=C/c2ccc(Br)cc2)c(C)c(=O)c1C` [R = Ar-Br, p-bromo-DOA]: the IC50 worked out at 1000 nM in assay [1] (K562, 72 h) and 0.5 µg/mL in assay [1] (setting [3]).
As to `COc1oc(CC/C(C)=C/C(C)=C/c2ccc(C#N)cc2)c(C)c(=O)c1C` [R = Ar-CN, deoxyaureonitrile], the IC50 was found to be 1000 nM in assay [1] (K562, 72 h) and 0.5 µg/mL in assay [1] (setting [3]). In assay [1] (K-562 cells), the “increase of antiproliferative activity compared to aureothin” value is “up to 25 fold”. Also, the “effect against fungal strains” value in assay [2] was “activities comparable to aureothin”.
Turning to `COc1oc(CC/C(C)=C/C(C)=C/c2ccc(Cl)cc2)c(C)c(=O)c1C` [R = Ar-Cl, p-chloro-DOA], the IC50 stood at 2000 nM in assay [1] (K562, 72 h) and 0.8 µg/mL in assay [1] (setting [3]).
Regarding `COc1oc(CC/C(C)=C/C(C)=C/c2ccc(F)cc2)c(C)c(=O)c1C` [R = Ar-F, p-fluoro-DOA], the IC50 was determined as 1000 nM in assay [1] (K562, 72 h) and 0.5 µg/mL in assay [1] (setting [3]).
The like results for `COc1oc(CC/C(C)=C/C(C)=C/c2ccc(I)cc2)c(C)c(=O)c1C` [R = Ar-I, p-iodo-DOA] were, in that order, 1000 nM and 0.5 µg/mL.
In the case of `COc1oc(CC/C(C)=C/C(C)=C/c2ccc3ccccc3c2)c(C)c(=O)c1C` [R = Ar-Ph, 2-naphthoate-DOA], the IC50 was 21000 nM in assay [1] (K562, 72 h) and 8 µg/mL in assay [1] (setting [3]).

These data come from patent publication EP2108650A1, “Novel aureothin derivatives” (Leibniz-Institut für Naturstoff-Forschung und …, priority 2008, dated 2009).
